Test results: article PMC11040670, “Mechanistic and Kinetic Insights into Cellular Uptake of Biomimetic Dinitrosyl Iron Complexes and Intracellular Delivery of NO for Activation of Cytoprotective HO-1” (JACS Au, 2024)

What was measured:
MSC = assay: Survival of MSC under oxygen–glucose-deprived (OGD) condition; assay type: cell-based, human; conditions: MSC pretreated with DNIC, glucose-free DMEM, 1% oxygen, 48 h
Method: (§1) Cell viability study of MSC, N2a, and HCEC cells with or without the treatment of DNIC–COOH was performed using a Cell Counting Kit-8 (IMT Formosa New Materials Co., Ltd., Taiwan) according to the manufacturer’s protocol. Briefly, cells were seeded into a 96-well plate at a density of 4 × 10^3 cells/well for MSC, 1 × 10^4 cells/well for N2a, and 8 × 10^3 cells/well for HCEC, respectively, and incubated overnight. On the next day, cells were treated with DNIC–COOH at different concentrations and incubated for 24 h. The culture medium was then removed before the cells were washed with DPBS. After addition of fresh medium containing CCK-8 solution to the cells and incubation for 1–3 h, the absorbance at 450 nm was then measured on a microplate reader (SpectraMax iD3, Molecular Devices, San Jose, CA) with a reference wavelength of 650 nm. Three independent experiments were executed, and the results were represented as mean ± SEM% (n = 3) with the untreated cells (control) as 100% viability. […]
To simulate the microenvironment of ischemic tissues, the MSC cells with or without DNIC priming were cultured using glucose-free DMEM in a humidified hypoxia incubator (1% oxygen; Heracell VIOS 160i, Thermo Fisher Scientific) for 48 h. Cell viability was assessed by live/dead staining or CCK-8 assay.

deoxyMb = system: deoxyMb; set-up: method as in PMID 37533298; conditions: dinuclear DNIC, no Cys; cited from earlier work
metMb = molecular target: T1, metMb (Equus caballus, UniProt P68082); set-up: method as in PMID 37533298; conditions: dinuclear DNIC, no Cys; cited from earlier work
T1 construct: purchased Sigma

HCEC = assay: Cytoprotection of HCEC against H2O2 oxidative stress; assay type: cell-based, human; conditions: HCEC pretreated 24 h with 75 μM DNIC–COOH, then H2O2
Method: as §1, with “nm.” for “nm. Three independent experiments were executed, and the results were represented as mean ± SEM% (n = 3) with the untreated cells (control) as 100% viability.”
To investigate the capacity of DNIC preconditioning to protect the MSC cells against elevated oxidative stress, cells were pretreated with 2.5 μM of DNIC–COOMe or 100 μM of DNIC–COOH for 8 h before being incubated with 250 μM H2O2 for another 24 h. Cell viability was evaluated by live/dead staining or CCK-8 assay. In a similar manner, DNIC-induced cytoprotective effect in HCECs was evaluated through pretreatment of 1 μM of DNIC–COOMe or 75 μM of DNIC–COOH for 24 h.

HMOX1 gene = assay: Activation of HMOX1/HO-1, stated jointly for MSC/N2a/HCEC (incl. PTIO/ODQ); assay type: cell-based
Method: After treatment of (1) 100 μM of DNIC–COOH to MSC, (2) 100 μM of DNIC–COOH to N2a, (3) 75 μM of DNIC–COOH to HCEC, (4) 2.5 μM of DNIC–COOMe to MSC, (5) 10 μM of DNIC–COOMe to N2a, and (6) 1 μM of DNIC–COOMe to HCEC, respectively, the total RNA of the treated cells was extracted using TRIzol Reagent (Thermo Fisher Scientific) in order to assess the time-dependent change in the mRNA level of HO-1. After the synthesis of complementary DNA with the High-Capacity Reverse Transcription Kit, qPCR was conducted using Power SYBR Green PCR Master Mix with the StepOnePlus Real-Time PCR System (Thermo Fisher Scientific). The primer sequences were as follows: HMOX1 forward 5′-[…]-3′ and reverse 5′-[…]-3′; RPL13A forward 5′-[…]-3′ and reverse 5′- […]-3′; GAPDH forward 5′-[…]-3′ and reverse 5′-[…]-3′. The relative mRNA levels of target genes were determined by a comparative threshold cycle method and normalized to that of RPL13A (or GAPDH). The mRNA level of HO-1 in the MSC, N2a, and HCEC cells, respectively, that received the (1) sequential treatments of 1H-[1,2,4]oxadiazolo-[4,3-a]quinoxalin-1-one (ODQ, 10 μM for 1 h) and DNIC–COOH (100 μM in MSC for 3 h, 100 μM in N2a for 10 h, and 75 μM in HCEC for 6 h) or (2) cotreatment of 2-phenyl-4,4,5,5-tetramethylimidazoline-1-oxyl-3-oxide ([…]) and DNIC–COOH (100 μM in MSC for 3 h, 100 μM in N2a for 10 h, and 75 μM in HCEC for 6 h) was also evaluated under a similar procedure.

T1 sequence (P68082 2-154 limits assumed): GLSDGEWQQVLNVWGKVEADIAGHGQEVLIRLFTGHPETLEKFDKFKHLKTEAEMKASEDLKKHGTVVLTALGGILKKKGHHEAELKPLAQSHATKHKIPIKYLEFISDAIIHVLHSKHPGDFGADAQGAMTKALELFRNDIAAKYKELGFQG

COC(=O)CC[SH]1[Fe]([N]=O)([N]=O)[SH](CCC(=O)OC)[Fe]1([N]=O)[N]=O (stereo not drawn) [DNIC–COOMe, [(NO)2Fe(μ-SCH2CH2COOCH3)2Fe(NO)2]]
cell viability under OGD condition (MSC): comparable to that of OGD group

O=[N][Fe]1([N]=O)[SH](CCC(=O)O)[Fe]([N]=O)([N]=O)[SH]1CCC(=O)O (stereo not drawn) [DNIC–COOH, [(NO)2Fe(μ-SCH2CH2COOH)2Fe(NO)2]]
nitrosylation of the Fe2+-porphyrin center in deoxyMb (deoxyMb): efficient nitrosylation
cell viability under OGD condition (MSC): increase in the number of viable cells
reactivity toward the Fe3+-porphyrin center in metMb (metMb): inert
survival under mimic oxidative stress condition (HCEC): enhanced survival
activation of cytoprotective HO-1 (HMOX1 gene; at t = 3–10 h (abstract)): 50–150 fold change
effect on transcriptional activation of HMOX1 gene by DNIC–COOH (HMOX1 gene; cotreatment of PTIO to MSC/HCEC): no significant perturbation
effect on transcriptional activation of HMOX1 gene by DNIC–COOH (HMOX1 gene; higher concentration of PTIO (100 μM) to N2a): reduced transcriptional activation
effect on transcriptional activation of HMOX1 gene by DNIC–COOH (HMOX1 gene; pretreatment of ODQ to MSC/N2a/HCEC): no significant perturbation
